Test results as given in patent US9469615B2, “Quinoxalines and AZA-quinoxalines as CRTH2 receptor modulators” (Merck Sharp & Dohme Corp., priority 2010, dated 2016).

Each compound was assayed against T1, hCRTH2 (Homo sapiens, UniProt Q9Y5Y4) (assay: Radioligand binding assay ([3H]PGD2 competition, HEK-hCRTH2 membranes)). Details: [3H]PGD2 binding, rated A-E (Table A).
T1 construct: expressed in transfected cells; host or cells: HEK (human embryonic kidney) cells expressing hCRTH2; membrane preparation
T1 sequence (Q9Y5Y4 1-395): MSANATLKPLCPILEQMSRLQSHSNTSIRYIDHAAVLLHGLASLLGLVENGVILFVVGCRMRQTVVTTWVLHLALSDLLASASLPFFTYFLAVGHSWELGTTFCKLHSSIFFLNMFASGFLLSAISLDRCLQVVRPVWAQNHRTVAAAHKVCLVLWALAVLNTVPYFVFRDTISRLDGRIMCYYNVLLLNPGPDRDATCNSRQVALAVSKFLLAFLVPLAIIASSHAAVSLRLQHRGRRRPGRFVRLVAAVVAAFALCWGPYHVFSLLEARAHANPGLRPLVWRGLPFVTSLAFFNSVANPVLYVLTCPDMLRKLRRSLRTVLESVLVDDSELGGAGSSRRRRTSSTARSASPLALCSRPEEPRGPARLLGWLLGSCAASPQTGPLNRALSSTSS
Method in brief: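 Using membranes of an HEK line stably carrying hCRTH2, ligands were tested against [3H]PGD2 (3.0 nM) in pH 7.4 Tris buffer containing 2 mM MnCl2 and 1 mM EDTA. After one hour at room temperature, filters were washed cold and counted.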

Compound	Ki [nM]
CC(CCc1nc2cc(C(=O)N[C@H](C)c3ccc(Cl)cc3)ccc2nc1-c1ccc(Cl)cc1)CC(=O)O (stereo partly drawn) [17E, 3-(4-chlorophenyl)-7-[[[1(R)-(4-chlorophenyl)ethyl]amino]carbonyl]-beta-methyl-2-quinoxalinepentanoic acid]	2.1 to 20
CC(CCc1nc2cc(C(=O)N3CC(c4ccccc4)C3)ccc2nc1-c1ccc(Cl)cc1)CC(=O)O (stereo not drawn) [17F, 3-(4-chlorophenyl)-beta-methyl-7-[(3-phenyl-1-azetidinyl)carbonyl]-2-quinoxalinepentanoic acid]	0.1 to 2
CC(CCc1nc2cc(C(=O)N[C@H](c3ccc(F)cc3)C(F)(F)F)ccc2nc1-c1ccc(Cl)cc1)CC(=O)O (some centres unmarked) [17G]	2.1 to 20
COc1ccc(CNC(=O)c2ccc3nc(-c4ccc(Cl)cc4)c(CCC(C)CC(=O)O)nc3c2)cc1 (centres unmarked) [17H]	2.1 to 20
CC(CCc1nc2cc(C(=O)N3CCC[C@H](c4ccccc4)C3)ccc2nc1-c1ccc(Cl)cc1)CC(=O)O (stereo partly drawn) [17J, 3-(4-chlorophenyl)-beta-methyl-7-[(3(R)-phenyl-1-piperidinyl)carbonyl]-2-quinoxalinepentanoic acid]	2.1 to 20
CC(CCc1nc2cc(C(=O)N3CC[C@@H](c4ccccc4)C3)ccc2nc1-c1ccc(Cl)cc1)CC(=O)O (stereo partly drawn) [17K, 3-(4-chlorophenyl)-beta-methyl-7-[(3(S)-phenyl-1-pyrrolidinyl)carbonyl]-2-quinoxalinepentanoic acid]	0.1 to 2
CC(CCc1nc2cc(C(=O)N3CC[C@H](c4ccccc4)C3)ccc2nc1-c1ccc(Cl)cc1)CC(=O)O (stereo partly drawn) [17L, 3-(4-chlorophenyl)-beta-methyl-7-[(3(R)-phenyl-1-pyrrolidinyl)carbonyl]-2-quinoxalinepentanoic acid]	2.1 to 20
CC(CCc1nc2cc(C(=O)N[C@@H](c3ccccc3)C(F)(F)F)ccc2nc1-c1ccc(Cl)cc1)CC(=O)O (stereo partly drawn) [17M, 3-(4-chlorophenyl)-beta-methyl-7-[[[2,2,2-trifluoro-(1S)-phenylethyl]amino]carbonyl]-2-quinoxaline pentanoic acid]	2.1 to 20
CC(CCc1nc2cc(C(=O)N[C@H](c3ccccc3)C(F)(F)F)ccc2nc1-c1ccc(Cl)cc1)CC(=O)O (stereo partly drawn) [17N, 3-(4-chlorophenyl)-beta-methyl-7-[[(2,2,2-trifluoro-1(R)-phenylethyl)amino]carbonyl]-2-quinoxalinepentanoic acid]	2.1 to 20
COc1ccc([C@H](C)NC(=O)c2ccc3nc(-c4ccc(Cl)cc4)c(CCC(C)CC(=O)O)nc3c2)cc1 (stereo partly drawn) [17P, 3-(4-chlorophenyl)-7-[[[1(S)-(4-methoxyphenyl)ethyl]amino]carbonyl]-beta-methyl-2-quinoxaline pentanoic acid]	2.1 to 20
CC(CCc1nc2cc(C(=O)NCc3cccc(Cl)c3)ccc2nc1-c1ccc(C(F)(F)F)cc1)CC(=O)O (stereo not drawn) [17Q, 7-[[[(3-chlorophenyl)methyl]amino]carbonyl]-beta-methyl-3-[4-(trifluoromethyl)phenyl]-2-quinoxalinepentanoic acid]	2.1 to 20
CC(CCc1nc2cc(C(=O)N3CCC(c4ccccc4)CC3)ccc2nc1-c1ccc(C(F)(F)F)cc1)CC(=O)O (centres unmarked) [17R]	0.1 to 2
CC(CCc1nc2cc(C(=O)N[C@@H](c3ccccc3)C(F)(F)F)ccc2nc1-c1ccc(C(F)(F)F)cc1)CC(=O)O (some centres unmarked) [17S]	2.1 to 20
CC(CCc1nc2cc(C(=O)NC3Cc4ccccc4C3)ccc2nc1-c1ccc(C(F)(F)F)cc1)CC(=O)O (stereo not drawn) [17T, 7-[[(2,3-dihydro-1H-inden-2-yl)amino]carbonyl]-beta-methyl-3-[4-(trifluoromethyl)phenyl]-2-quinoxalinepentanoic acid]	0.1 to 2
CC(CCc1nc2cc(C(=O)N3CC[C@H](c4ccccc4)C3)ccc2nc1-c1ccc(C(F)(F)F)cc1)CC(=O)O (stereo partly drawn) [17U, beta-methyl-7-[(3(R)-phenyl-1-pyrrolidinyl)carbonyl]-3-[4-(trifluoromethyl)phenyl]-2-quinoxalinepentanoic acid]	2.1 to 20
CC(CCc1nc2cc(C(=O)N3CC[C@@H](c4ccccc4)C3)ccc2nc1-c1ccc(C(F)(F)F)cc1)CC(=O)O (stereo partly drawn) [17V, beta-methyl-7-[(3(S)-phenyl-1-pyrrolidinyl)carbonyl]-3-[4-(trifluoromethyl)phenyl]-2-quinoxalinepentanoic acid]	0.1 to 2
CC(CCc1nc2cc(C(=O)N3CC(c4ccccc4)C3)ccc2nc1-c1ccc(C(F)(F)F)cc1)CC(=O)O (stereo not drawn) [17W, beta-methyl-7-[(3-phenyl-1-azetidinyl)carbonyl]-3-[4-(trifluoromethyl)phenyl]-2-quinoxalinepentanoic acid]	0.1 to 2
CC(CCc1nc2cc(C(=O)NCc3ccc(Cl)cc3)ccc2nc1-c1ccc(C(F)(F)F)cc1)CC(=O)O (stereo not drawn) [17X, 7-[[[(4-chlorophenyl)methyl]amino]carbonyl]-beta-methyl-3-[4-(trifluoromethyl)phenyl]-2-quinoxalinepentanoic acid]	2.1 to 20
CC(CCc1nc2cc(C(=O)NCc3ccc(OC(F)(F)F)cc3)ccc2nc1-c1ccc(C(F)(F)F)cc1)CC(=O)O (stereo not drawn) [17Y, beta-methyl-7-[[[[4-(trifluoromethoxy)phenyl]methyl]amino]carbonyl]-3-[4-(trifluoromethyl)phenyl]-2-quinoxalinepentanoic acid]	2.1 to 20
CC(CCc1nc2cc(C(=O)NCc3ccc(C#N)cc3)ccc2nc1-c1ccc(C(F)(F)F)cc1)CC(=O)O (stereo not drawn) [17Z, 7-[[[(4-cyanophenyl)methyl]amino]carbonyl]-beta-methyl-3-[4-(trifluoromethyl)phenyl]-2-quinoxalinepentanoic acid]	2.1 to 20
CC(CCc1nc2cc(C(=O)N3CCC[C@@H](c4ccccc4)C3)ccc2nc1-c1ccc(Cl)cc1)CC(=O)O (stereo partly drawn) [17i, 3-(4-chlorophenyl)-beta-methyl-7-[(3(S)-phenyl-1-piperidinyl)carbonyl]-2-quinoxalinepentanoic acid]	2.1 to 20
COc1ccc([C@@H](C)NC(=O)c2ccc3nc(-c4ccc(Cl)cc4)c(CCC(C)CC(=O)O)nc3c2)cc1 (stereo partly drawn) [17o, 3-(4-chlorophenyl)-7-[[[1(R)-(4-methoxyphenyl)ethyl]amino]carbonyl]-beta-methyl-2-quinoxaline pentanoic acid]	0.1 to 2
CC(CCCc1nc2cc(C(=O)NCc3cccc(Cl)c3)ccc2nc1-c1ccc(C(F)(F)F)cc1)C(=O)O (stereo not drawn) [18D, 7-[[[(3-chlorophenyl)methyl]amino]carbonyl]-alpha-nethyl-3-[4-(trifluoromethyl)phenyl]-2-quinoxalinepentanoic acid]	2.1 to 20
CC(CCCc1nc2cc(C(=O)N3CC[C@@H](c4ccccc4)C3)ccc2nc1-c1ccc(C(F)(F)F)cc1)C(=O)O (stereo partly drawn) [18E, alpha-methyl-7-[(3(S)-phenyl-1-pyrrolidinyl)carbonyl]-3-[4-(trifluoromethyl)phenyl]-2-quinoxalinepentanoic acid]	0.1 to 2
CC(CCCc1nc2cc(C(=O)N3CC[C@H](c4ccccc4)C3)ccc2nc1-c1ccc(C(F)(F)F)cc1)C(=O)O (stereo partly drawn) [18F, alpha-methyl-7-[(3(R)-phenyl-1-pyrrolidinyl)carbonyl]-3-[4-(trifluoromethyl)phenyl]-2-quinoxalinepentanoic acid]	2.1 to 20
CC(CCCc1nc2cc(C(=O)NC3Cc4ccccc4C3)ccc2nc1-c1ccc(C(F)(F)F)cc1)C(=O)O (stereo not drawn) [18G, 7-[[(2,3-dihydro-1H-inden-2-yl)amino]carbonyl]-alpha-methyl-3-[4-(trifluoromethyl)phenyl]-2-quinoxalinepentanoic acid]	0.1 to 2
